Paper PMC7894522, “Structure Based Design of Bicyclic Peptide Inhibitors of RbAp48” (Angewandte Chemie (International Ed. in English), 2020)
Starred links: 1 amine or outer side, 2 acyl side, 3 side chain; linkers in the order of their positions; H or OH if unused. Positions of bridges follow the written chain, without caps; N, C: chain ends. Residues, ends and D or L forms follow the SMILES beside them. TBMB = c1c(C[*:1])cc(C[*:3])cc1C[*:2]

Tests used:
RbAp48 [1] = target: T1, RbAp48 (Homo sapiens, UniProt Q09028); experiment: Competitive fluorescence polarization (FP) assay using complex of peptide 1 and RbAp48; type: binding; parameters: Full length RbAp48 was cloned; His tag followed by 3C cleavage site (N, cleaved yes); made in house; host or cells: Sf9 insect cells; settings: Table 1; competitive FP, tracer peptide 1 1 nM, RbAp48 15 nM, 20 mM Tris-HCl, 150 mM NaCl, 0.01% Tween-20, pH 7.5, 30 min room temperature; lower limit set by 15 nM protein; read-out: IC50
Summary of the method: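 Sf9-expressed full-length RbAp48 (tag cleaved), 15 nM, displaced from 1 nM fluorescent peptide tracer in 20 mM Tris-HCl pH 7.5, 150 mM NaCl, 0.01% Tween-20. Read by FP (ex 485/em 535 nm) after 30 min at room temperature.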

RbAp48 [2] = target: T1, RbAp48; experiment: Isothermal titration calorimetry (direct and competitive); type: binding; parameters: Full length RbAp48 was cloned; His tag followed by 3C cleavage site (N, cleaved yes); made in house; host or cells: Sf9 insect cells; settings: competitive ITC with weak ligand 40
Protocol: The weak ligand interferes with binding of the strong ligand allowing the use of higher concentrations and therefore stronger signal. The actual affinity and thermodynamic parameters can then be calculated from the measured values.[ ^20 , ^21 ] The long linear peptide 2, monocyclic peptide 8, and bicyclic peptide 33 were analysed using this method and the results are reported in Table 2 (See Figure 4 A and Supplemental Figure 13–16). […] An effect which could not clearly be observed by the FP assay as it's lower limits were reached.
Protein expression and purification
RbAp48 was expressed and purified by the Dortmund Protein Facility. Full length RbAp48 was cloned into a pOPIN vector ligating it to an N-terminal His tag followed by a 3C cleavage site. The protein was expressed from Sf9 cells for 48 h. Cells were harvested and lysed and the protein was purified by loading onto a HisTrap FF crude 5 ml column followed by on-column cleavage using Precission protease. The cleaved protein was then further purified using a HiLoad 26/60 Superdex 200 column.
Fluorescence polarization assay […]
Isothermal Titration Calorimetry
Isothermal titration calorimetry measurements w ere performed using a Microcal ITC-200 device. The buffer for all measurements consisted of 20 mM Tris, 150 mM NaCl, pH 7.5 and all measurements were performed at 25°C in duplicate except for 8. RbAp48 was dialyzed overnight using a 10 kDa MWCO Slide-A-lizer dialysis membrane and peptide samples were dissolved in the dialysis buffer. Direct measurements of 40 were perfomed by titrating the peptide ( 800 µM) into the cell containing RbAp48 (40 µM) using 2 µl injection after an initial injection of 0.5 µl. […]
by competitive ITC where the protein is premixed with a weak ligand ( 40).[1] Competitive measurements were performed by titrating 2, 8 or 33 (300 µM) into the cell containing RbAp48 (30 µM) and 40 (416 µM). Other conditions were the same as for the direct measurement described above.
Ki was calculated according using the following formula: […]

T1 sequence (Q09028 whole entry): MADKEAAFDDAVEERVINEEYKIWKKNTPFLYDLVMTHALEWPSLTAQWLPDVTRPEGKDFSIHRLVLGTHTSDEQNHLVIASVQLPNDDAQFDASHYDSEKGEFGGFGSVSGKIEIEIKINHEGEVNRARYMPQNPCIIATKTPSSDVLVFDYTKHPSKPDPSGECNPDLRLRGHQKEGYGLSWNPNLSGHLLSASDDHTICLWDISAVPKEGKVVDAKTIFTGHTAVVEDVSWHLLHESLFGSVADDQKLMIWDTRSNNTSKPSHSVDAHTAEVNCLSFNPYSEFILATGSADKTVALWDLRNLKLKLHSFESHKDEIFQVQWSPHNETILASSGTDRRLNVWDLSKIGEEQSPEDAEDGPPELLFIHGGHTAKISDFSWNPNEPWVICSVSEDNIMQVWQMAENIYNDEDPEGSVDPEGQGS

CC(=O)N[C@H]1CSCc2cc3cc(c2)CSC[C@@H](C(=O)N[C@@H](C)C(N)=O)NC(=O)[C@@H]2CCCN2C(=O)[C@H](CCCCN)NC(=O)[C@H](Cc2ccc(O)cc2)NC(=O)[C@@H]2CCCN2C(=O)[C@H](CCCNC(=N)N)NC(=O)[C@H](CCCNC(=N)N)NC(=O)[C@H](C)NC(=O)[C@H](CSC3)NC(=O)[C@H](CCCNC(=N)N)NC(=O)[C@H](CCCCN)NC(=O)[C@H]([C@@H](C)O)NC1=O [Peptide 33] (Ac-CTKRCARRPYKPCA-NH2; linker 1-5-13 via TBMB)
IC50 (RbAp48 [1]): 12.3 ± 2 nM
Kd (RbAp48 [2]): 8.56 nM
